Results reported in ChEMBL document CHEMBL1158410, “Synthesis and evaluation of 1-(quinoliloxypropyl)-4-aryl piperazines for atypical antipsychotic effect” (Bioorg Med Chem Lett, 2009).
Activity calls are given as the source filed them. The calls are words filed in the database; no cut-off is given here.

Key:
[1] = Lipophilicity, log P of the compound; type: physicochemical; conditions: octanol/water
Mus musculus [2] = experiment: Antipsychotic activity in albino lyka mouse assessed as reversal of apomorphine-induced stereotype response at 5 mg/kg, ip administered 10 mins prior to apomorphine challenge measured after 10 to 30 mins; type: functional, organism-based; design: dose 5 mg/kg
Mus musculus [3] = experiment: Antipsychotic activity in albino lyka mouse assessed as reduction in apomorphine-induced mesh climbing response at 5 mg/kg, ip administered 10 mins prior to apomorphine challenge measured after 10 to 30 mins; type: functional, organism-based; design: dose 5 mg/kg
Mus musculus [4] = experiment: Antipsychotic activity in albino lyka mouse assessed as reversal of apomorphine-induced stereotype response at 120 mg/kg, ip administered 10 mins prior to apomorphine challenge measured after 10 to 30 mins; type: functional, organism-based; design: dose 120 mg/kg
Mus musculus [5] = experiment: Antipsychotic activity in albino lyka mouse assessed as reduction in apomorphine-induced mesh climbing response at 120 mg/kg, ip administered 10 mins prior to apomorphine challenge measured after 10 to 30 mins; type: functional, organism-based; design: dose 120 mg/kg
Mus musculus [6] = experiment: Antipsychotic activity in albino lyka mouse assessed as reversal of apomorphine-induced stereotype response at 1 mg/kg, ip administered 10 mins prior to apomorphine challenge measured after 10 to 30 mins; type: functional, organism-based; design: dose 1 mg/kg
Mus musculus [7] = experiment: Antipsychotic activity in albino lyka mouse assessed as reduction in apomorphine-induced mesh climbing response at 1 mg/kg, ip administered 10 mins prior to apomorphine challenge measured after 10 to 30 mins; type: functional, organism-based; design: dose 1 mg/kg
Mus musculus [8] = experiment: Antipsychotic activity in albino lyka mouse assessed as reversal of apomorphine-induced stereotype response at 25 mg/kg, ip administered 10 mins prior to apomorphine challenge measured after 10 to 30 mins; type: functional, organism-based; design: dose 25 mg/kg
Mus musculus [9] = experiment: Antipsychotic activity in albino lyka mouse assessed as reduction in apomorphine-induced mesh climbing response at 25 mg/kg, ip administered 10 mins prior to apomorphine challenge measured after 10 to 30 mins; type: functional, organism-based; design: dose 25 mg/kg
Mus musculus [10] = experiment: Antipsychotic activity in albino lyka mouse assessed as reversal of apomorphine-induced stereotype response at 80 mg/kg, ip administered 10 mins prior to apomorphine challenge measured after 10 to 30 mins; type: functional, organism-based; design: dose 80 mg/kg
Mus musculus [11] = experiment: Antipsychotic activity in albino lyka mouse assessed as reduction in apomorphine-induced mesh climbing response at 80 mg/kg, ip administered 10 mins prior to apomorphine challenge measured after 10 to 30 mins; type: functional, organism-based; design: dose 80 mg/kg
Mus musculus [12] = experiment: Antipsychotic activity in albino lyka mouse assessed as reversal of apomorphine-induced stereotype response at 20 mg/kg, ip administered 10 mins prior to apomorphine challenge measured after 10 to 30 mins; type: functional, organism-based; design: dose 20 mg/kg
Mus musculus [13] = experiment: Antipsychotic activity in albino lyka mouse assessed as reduction in apomorphine-induced mesh climbing response at 20 mg/kg, ip administered 10 mins prior to apomorphine challenge measured after 10 to 30 mins; type: functional, organism-based; design: dose 20 mg/kg

CN1CCN(C2=Nc3cc(Cl)ccc3Nc3ccccc32)CC1 [CLOZAPINE] gave a logP [1] of 3.71.
In the case of O=C(c1ccc(Cl)cc1)N1CCN(CCCOc2cccc3cccnc23)CC1, the Activity (Mus musculus [2]) is reported as “Active”, the logP [1] is reported as 3.58 and the Activity (Mus musculus [3]) is reported as “inactive”.
For O=C(c1ccc(F)cc1)C1CCN(CCn2c(=O)[nH]c3ccccc3c2=O)CC1 [KETANSERIN], the logP [1] was 2.37.
In the case of c1ccc(CN2CCN(CCCOc3cccc4cccnc34)CC2)cc1, the Activity (Mus musculus [4]) is reported as “inactive”, the logP [1] is reported as 3.58 and the Activity (Mus musculus [5]) is reported as “Active”.
With O=C1Cc2cc(CCN3CCN(c4nsc5ccccc45)CC3)c(Cl)cc2N1 [ZIPRASIDONE] the logP [1] was 4.67.
In the case of Cc1nc2n(c(=O)c1CCN1CCC(c3noc4cc(F)ccc34)CC1)CCCC2 [RISPERIDONE], the logP [1] is reported as 2.1.
For O=C(c1ccc(Cl)cc1)N1CCN(CCCOc2ccc3ncccc3c2)CC1, the Activity (Mus musculus [6]) was “Active”, the logP [1] was 3.58 and the Activity (Mus musculus [7]) was “inactive”.
For c1ccc(CN2CCN(CCCOc3ccc4ncccc4c3)CC2)cc1, the Activity (Mus musculus [8]) was “inactive”, the logP [1] was 3.58 and the Activity (Mus musculus [9]) was “inactive”.
For O=C(c1ccccc1)N1CCN(CCCOc2ccc3ncccc3c2)CC1, the Activity (Mus musculus [8]) was “Active”, the logP [1] was 3.02 and the Activity (Mus musculus [9]) was “inactive”.
With Clc1ccc(CN2CCN(CCCOc3cccc4cccnc34)CC2)cc1 the Activity (Mus musculus [10]) was “inactive”, the logP [1] was 4.14 and the Activity (Mus musculus [11]) was “Active”.
With O=C(c1ccccc1)N1CCN(CCCOc2cccc3cccnc23)CC1 the Activity (Mus musculus [12]) was “Active”, the logP [1] was 3.02 and the Activity (Mus musculus [13]) was “inactive”.
With Clc1ccc(CN2CCN(CCCOc3ccc4ncccc4c3)CC2)cc1 the Activity (Mus musculus [2]) was “inactive”, the logP [1] was 4.14 and the Activity (Mus musculus [3]) was “inactive”.
